Here are results for seven compounds from patent publication US20100022483A1, “Substituted Tetracycline Compounds” (Paratek Pharmaceuticals, Inc., priority 2008, published 2010).

Values after ≈ are worked out from the molar mass of the structure shown. Like-named read-outs stand apart in the source and are kept apart here.

A short description of data set [1]: Mammalian cytotoxicity assay (resazurin), COS-1 cells. The format is cell-based. The settings on record: African green monkey, read-out: Cytotox. COS-1. A digest of the protocol: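 Resazurin read-out (0.042 mg/ml, 2 h at 37° C. then 30 min dark, room temperature; fluorescence 535/590 nm) follows 24-hour compound exposure of overnight-seeded cells, serially diluted. IC50 is the concentration giving 50% growth inhibition.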
(The colour change of resazurin is a common sign of viable cells or microbes.)

A further data set has as its system gram negative bacteria. As to the kind of experiment: In vitro anti-bacterial activity assay (broth dilution MIC), gram negative bacteria. The format is cell-based, E. coli. The method, boiled down:
(§1)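 Broth dilution MIC following CLSI M7-A2: compounds serially diluted, log-phase test strains added to final ~5×10^5 CFU/ml, incubated ~18 hours at 35° C in ambient air. Plates read on microplate reader or visually; MIC is lowest concentration inhibiting growth.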
A general note: In broth dilution the organism is exposed to a series of concentrations in liquid medium.

A further data set deals with gram positive bacteria. As to the kind of experiment: In vitro anti-bacterial activity assay (broth dilution MIC), gram positive bacteria. The format is cell-based, S. aureus. The note with it: 18 h. The method, boiled down: as §1
For another data set, the system named is 3T3 fibroblast cells. The experiment in a line: In vitro phototoxicity assay (neutral red; UV light-treated vs dark control plates). The settings on record: for Photo Toxicity UV Tox50: UV light 50 minutes; for Photo Toxicity Dark Tox50: dark control plate. The class given is cell-based. A digest of the protocol: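 Neutral red viability readout (A535 after EtOH/acetic acid extraction) compares paired plates: one exposed 50 min to UV at 1.6–1.8 mW/cm^2, one held in darkness, both dosed with compound in HBSS and recovered overnight. 3T3 fibroblast cells used; phototoxicity taken as the difference.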

The next data set in a line: in vitro. The class given is cell-based. The note with it: Chinese hamster, Cytotox. CHO-K1.
Where [2] appears, read: Escherichia coli, 18 h, E. coli D1 209, read-out: Median MIC's G− E. coli D1 209.
[3] abbreviates: Escherichia coli, 18 h, E. coli MG 1655, read-out: Median MIC's G− E. coli MG 1655.
Setting [4] is: Escherichia coli, ATCC25922, 18 h, E. coli ATCC 25922, read-out: Median MIC's G− E. coli ATCC 25922.
The mark [5] stands for this setting: Pseudomonas aeruginosa, 18 h, P. aeruginosa K201 PAO6609, read-out: Median MIC's G− P. aeruginosa K201 PAO6609.
Where [6] appears, read: Staphylococcus aureus, S. aureus MRSA5, read-out: Median MIC's G+ S. aureus MRSA5.
Where [7] appears, read: Staphylococcus aureus, S. aureus RN450, read-out: Median MIC's G+ S. aureus RN450.
Where [8] appears, read: Streptococcus pneumoniae, S. pneumoniae 157E-Strep, read-out: Median MIC's G+ S. pneumoniae 157E-Strep.

Consider `CC1CCN(CC(=O)c2ccc(O)c3c2C[C@H]2C[C@H]4[C@H](N(C)C)C(O)=C(C(N)=O)C(=O)[C@@]4(O)C(O)=C2C3=O)CC1` [BH, 7-[2-(4-methyl-piperidin-1-yl)acetyl]-Sancycline], for which the IC50 at 24 h (in data set [1]; in the data set “in vitro”) was above 136 µM each time. For the same compound, the MIC is 0.25 µg/mL (≈ 0.452 µM) in the data set with gram negative bacteria (setting [2]); 0.06 µg/mL (≈ 0.108 µM) in the data set with gram negative bacteria (setting [3]); 0.06 µg/mL (≈ 0.108 µM) in the data set on gram negative bacteria (setting [4]); 32 µg/mL (≈ 57.8 µM) in the data set on gram negative bacteria (setting [5]); 0.06 µg/mL (≈ 0.108 µM) in the data set on gram positive bacteria (setting [6]); 0.06 µg/mL (≈ 0.108 µM) in the data set on gram positive bacteria (setting [7]). For the same compound, the minimum inhibitory concentration (MIC) with gram positive bacteria (setting [8]) amounted to 0.06 µg/mL (≈ 0.108 µM). Besides, the “Photo Toxicity UV Tox50” value in the data set with 3T3 fibroblast cells was above 135.66 µM. In the data set with 3T3 fibroblast cells, the “Photo Toxicity Dark Tox50” value was above 135.66 µM.
Consider `CN(C)[C@@H]1C(O)=C(C(N)=O)C(=O)[C@@]2(O)C(O)=C3C(=O)c4c(O)ccc(-c5ccc(CNCc6cccnc6)o5)c4C[C@H]3C[C@@H]12` [BI], for which the IC50 at 24 h in data set [1] is above 39.3 µM; in the data set “in vitro” it was above 26 µM. Moreover, the MIC with gram negative bacteria (setting [2]) turned out to be 2 µg/mL (≈ 3.33 µM); in the data set on gram negative bacteria (setting [3]), 4 µg/mL (≈ 6.66 µM); in the data set with gram negative bacteria (setting [4]), 1 µg/mL (≈ 1.66 µM); in the data set on gram negative bacteria (setting [5]), 64 µg/mL (≈ 107 µM); in the data set on gram positive bacteria (setting [6]) it was 8 µg/mL (≈ 13.3 µM); in the data set on gram positive bacteria (setting [7]), 0.06 µg/mL (≈ 0.0999 µM). The MIC in the data set on gram positive bacteria (setting [8]) worked out at 0.06 µg/mL (≈ 0.0999 µM). Also, the “Photo Toxicity UV Tox50” value with 3T3 fibroblast cells was above 126.75 µM. For the same compound, the “Photo Toxicity Dark Tox50” value with 3T3 fibroblast cells is above 126.75 µM.
Regarding `CN(Cc1cccnc1)Cc1cccc(-c2ccc(O)c3c2C[C@H]2C[C@H]4[C@H](N(C)C)C(O)=C(C(N)=O)C(=O)[C@@]4(O)C(O)=C2C3=O)c1` [BJ], the IC50 at 24 h in data set [1] was above 12.3 µM; in “in vitro”, above 25.1 µM. The minimum inhibitory concentration (MIC) stood at 32 µg/mL (≈ 51.2 µM) with gram negative bacteria (setting [2]); 64 µg/mL (≈ 102 µM) with gram negative bacteria (setting [3]); 16 µg/mL (≈ 25.6 µM) in the data set on gram negative bacteria (setting [4]); 64 µg/mL (≈ 102 µM) in the data set with gram negative bacteria (setting [5]); 2 µg/mL (≈ 3.2 µM) in the data set on gram positive bacteria (setting [6]); 0.25 µg/mL (≈ 0.4 µM) with gram positive bacteria (setting [7]). For the same compound, the minimal inhibitory concentration (MIC) with gram positive bacteria (setting [8]) was found to be 0.06 µg/mL (≈ 0.096 µM). The “Photo Toxicity UV Tox50” value in the data set with 3T3 fibroblast cells was above 122.6 µM. The “Photo Toxicity Dark Tox50” value in the data set on 3T3 fibroblast cells is above 122.6 µM.
For the compound `CN(C)Cc1ccc(-c2ccc(O)c3c2C[C@H]2C[C@H]4[C@H](N(C)C)C(O)=C(C(N)=O)C(=O)[C@@]4(O)C(O)=C2C3=O)[nH]1` [BK], the IC50 at 24 h (in data set [1]; in the data set “in vitro”) was above 148 µM throughout. Moreover, the minimal inhibitory concentration (MIC) was 64 µg/mL (≈ 119 µM) in the data set on gram negative bacteria (setting [2]); 4 µg/mL (≈ 7.45 µM) in the data set with gram negative bacteria (setting [3]); 4 µg/mL (≈ 7.45 µM) in the data set on gram negative bacteria (setting [4]); 32 µg/mL (≈ 59.6 µM) with gram negative bacteria (setting [5]); 4 µg/mL (≈ 7.45 µM) in the data set on gram positive bacteria (setting [6]); 0.25 µg/mL (≈ 0.466 µM) in the data set on gram positive bacteria (setting [7]). Besides, in the data set with gram positive bacteria (setting [8]), the MIC stood at 0.13 µg/mL (≈ 0.242 µM). Also, in the data set with 3T3 fibroblast cells, the “Photo Toxicity UV Tox50” value is above 147.66 µM. Also, in the data set with 3T3 fibroblast cells, the “Photo Toxicity Dark Tox50” value was above 147.66 µM.
Consider `CN(CCC#N)Cc1cccc(-c2ccc(O)c3c2C[C@H]2C[C@H]4[C@H](N(C)C)C(O)=C(C(N)=O)C(=O)[C@@]4(O)C(O)=C2C3=O)c1` [BL], for which the IC50 at 24 h (in data set [1]; in the data set “in vitro”) was above 13.6 µM each time. For the same compound, the MIC with gram negative bacteria (setting [2]) came out at 16 µg/mL (≈ 27.3 µM); in the data set with gram negative bacteria (setting [3]), 16 µg/mL (≈ 27.3 µM); in the data set with gram negative bacteria (setting [4]) it was 4 µg/mL (≈ 6.82 µM); in the data set on gram negative bacteria (setting [5]), 64 µg/mL (≈ 109 µM); in the data set with gram positive bacteria (setting [6]) it was 2 µg/mL (≈ 3.41 µM); in the data set on gram positive bacteria (setting [7]), 0.06 µg/mL (≈ 0.102 µM). Moreover, the MIC with gram positive bacteria (setting [8]) was 0.06 µg/mL (≈ 0.102 µM). For the same compound, the “Photo Toxicity UV Tox50” value with 3T3 fibroblast cells is above 136.45 µM. For the same compound, in the data set on 3T3 fibroblast cells, the “Photo Toxicity Dark Tox50” value was above 136.45 µM.
On to `CN(CCOC(C)(C)C)Cc1cccc(-c2ccc(O)c3c2C[C@H]2C[C@H]4[C@H](N(C)C)C(O)=C(C(N)=O)C(=O)[C@@]4(O)C(O)=C2C3=O)c1` [BM], for which the figures for the IC50 at 24 h (in data set [1]; in the data set “in vitro”) were 22.8 µM and 21.6 µM, respectively. The MIC in the data set on gram negative bacteria (setting [2]) was determined as 4 µg/mL (≈ 6.31 µM); with gram negative bacteria (setting [3]), 8 µg/mL (≈ 12.6 µM); in the data set with gram negative bacteria (setting [4]) it was 4 µg/mL (≈ 6.31 µM); in the data set with gram negative bacteria (setting [5]), 64 µg/mL (≈ 101 µM); in the data set with gram positive bacteria (setting [6]), 2 µg/mL (≈ 3.16 µM); with gram positive bacteria (setting [7]), 0.13 µg/mL (≈ 0.205 µM). Also, the minimal inhibitory concentration (MIC) in the data set on gram positive bacteria (setting [8]) was 0.06 µg/mL (≈ 0.0947 µM). In addition, in the data set with 3T3 fibroblast cells, the “Photo Toxicity UV Tox50” value amounted to 5.93 µM. The “Photo Toxicity Dark Tox50” value with 3T3 fibroblast cells is above 104.43 µM.
Turning to `CN(C)[C@H]1C(O)=C(C(N)=O)C(=O)[C@@]2(O)C(O)=C3C(=O)c4c(O)ccc(-c5cccc(CCCN6CCCCC6)c5)c4C[C@H]3C[C@@H]12` [BN], the IC50 at 24 h (in data set [1]; in the data set “in vitro”) was above 63 µM each time. The MIC amounted to 32 µg/mL (≈ 52 µM) in the data set on gram negative bacteria (setting [2]); 32 µg/mL (≈ 52 µM) in the data set on gram negative bacteria (setting [3]); 16 µg/mL (≈ 26 µM) in the data set on gram negative bacteria (setting [4]); 64 µg/mL (≈ 104 µM) in the data set with gram negative bacteria (setting [5]); 32 µg/mL (≈ 52 µM) in the data set on gram positive bacteria (setting [6]); 4 µg/mL (≈ 6.5 µM) with gram positive bacteria (setting [7]). In the data set with gram positive bacteria (setting [8]), the MIC was found to be 0.25 µg/mL (≈ 0.406 µM). In the data set on 3T3 fibroblast cells, the “Photo Toxicity UV Tox50” value came out at 33.41 µM. Besides, the “Photo Toxicity Dark Tox50” value with 3T3 fibroblast cells is above 200 µM.

As usually defined, the MIC is the lowest concentration found to suppress growth.
